Laboratory results taken from patent publication EP3064205A1, “Therapeutic use of isomeric forms of 2-(4-chlorophenyl)quinolin-4-yl)(piperidin-2-yl)methanol” (Glionova AB, priority 2015, dated 2016).
“Also recorded” adds a separate entry of the source.

Assays:
[1] = tested on: MIA-PaCa-2 cell line; experiment: ATP viability assay (CellTiter-Glo); type: cell-based; details: Homo sapiens; MIA-PaCa-2 (RAS mutation); at 24h, 48h and 72h
From the text: (§1) The following well-characterized human pancreatic ductal adenocarcinoma cell lines (ATCC) were used: HPAF II, BxPC-3, MIA-PaCa2 and Panc-1. These cell lines were generated from patient-derived tumors and are widely used model system to study pancreatic cancer (HPAF II: Kim YW, et al. Pancreas 4: 353-362, 1989; BxPC-3: Tan MH, et al. Cancer Invest. 4: 15-23, 1986; MIA-PaCa2: Yunis AA, et al. Int. J. Cancer 19: 128-135, 1977; Pacn-1: Lieber M, et al. Int. J. Cancer 15: 741-747, 1975).
(§2) Viability assay was conducted in 96 well microtiter plates seeded with 3000 cells. Cell viability was measured using CellTiter-Glo assay (Promega), according to the manufacturer's instructions. Luminescence was measured using Victor3 FA (Perkin Elmer) microtiter plate reader. Total luminescence was normalized relative to negative control and curve fitting performed using GraphPad Prism (v6.02) software. IC50 was determined using Cell Viability assay, and data was illustrated using GraphPad Prism (version 6.02)

[2] = tested on: BxPCI-2 cell line; experiment: ATP viability assay (CellTiter-Glo); type: cell-based; details: Homo sapiens; BxPCI-2 (wild type RAS); at 24h, 48h and 72h
From the text: as §1, §2

[3] = tested on: glioblastoma cell line U3013; experiment: ATP viability assay (CellTiter-Glo); type: cell-based, human
Method: The human melanoma cell line SK-MEL-28 is a well established reference cell line in melanoma research (Goodfellow M, et al. J. Natl. Cancer Inst. 59: 221-226, 1977). Cells were cultured in MEM supplemented with 10% FCS. Glioblastoma cell line (U3013) was generated directly from patient-derived tumors (Kitambi et al. Cell. 2014: 157(2):313-28) and grown in serum-free media supplemented with N2, B27, EGF, and FGF-2 (20 ng/ml) using previously described methodology (Pollard et al., 2009).
Culture plates were pre-coated with laminin (Sigma) for 3 hr at 10 ug/ml prior to use and confluent cells were split 1:3 to 1:5 using TrypLE Express (Invitrogen).
as §2

[4] = tested on: HPAF II cells; experiment: ATP viability assay (CellTiter-Glo), 3D culture, automatic drug screen; type: cell-based, human; details: 72 h, 30-10 µM
From the text: as §1
(§3) Panc-1, HPAF II, KPC pancreatic adenocarcinoma cell lines were trypsin-treated and counted using the Casy Cell Counter according to the manufacturer's recommendations (GmbH). Subsequently, they were seeded onto round bottom non-tissue culture treated 96 well-plates (Falcon, BD NJ, USA) at a concentration of 2500 cells/well in 100 µl DMEM-F12 or phenol red-free DMEM-F12 medium, containing 10% FCS and supplemented with 20% methyl cellulose stock solution. For preparation of methylcellulose stock solution, 6 grams of methylcellulose powder (M0512, Sigma-Aldrich) was autoclaved in a 500 ml flask containing a magnetic stirrer (the methylcellulose powder is resistant to this procedure). The autoclaved methylcellulose was dissolved in preheated 250 ml basal medium (60°C) for 20 min (using the magnetic stirrer). Thereafter, 250 ml medium (room temperature) containing double amount of FCS (20%) was added to a final volume of 500 ml and the whole solution mixed overnight at 4°C. The final stock solution was aliquoted and cleared by centrifugation (5000g, 2 h, room temperature). Only the clear highly viscous supernatant was used for the spheroid assay (about 90-95% of the stock solution). […]
(§4) In order to confirm the results presented in figure 1, S1 was further tested in 2 different cell lines in 3D culture format, using an automatic drug screening assay. The effect of Vacquinol-1 RS (S1) on cell viability was measured after 72h using the CellTiter-Glo assay (Promega) adapted for 3D culture.

[5] = tested on: Panc-1 cells; experiment: as above; type: cell-based, human; details: Panc-1, 3D culture, 72 h
From the text: as §1, §3, §4

[6] = tested on: KPC cells; experiment: as above; type: cell-based, mouse; details: 72h
Method: as §3, with “temperature).” for “temperature). Only the clear highly viscous supernatant was used for the spheroid assay (about 90-95% of the stock solution).”
as §4

O[C@H](c1cc(-c2ccc(Cl)cc2)nc2ccccc12)[C@@H]1CCCCN1 [S1, (R)-(2-(4-chlorophenyl)quinolin-4-yl)((S)-piperidin-2-yl)methanol]
IC50 [1]: 12 to 19 µM
IC50 [2]: 12 to 19 µM
IC50 ([3]; Homo sapiens, U3013, positive control cell line, 24, 48 and 72 h): 1.9 to 3.5 µM
in vitro cytotoxicity, comparison of isolated isomers ([3]; U3013, dose response, CellTiterGlo ATP quantification): S1 and S2 exhibit greater in vitro oncolytic potency than the corresponding S3 and S4 isomers; also recorded: S1 and S2 exhibit higher cytotoxicity on cancer cells than S3 and S4
viability compared to control [4]: marked decrease in viability
decrease in viability ([5]; 20-10 µM): ~20%
viability compared to control ([5]; 30 and 25 µM): marked decrease in viability
reduction in viability ([6]; 10 µM): ~50%
viability compared to control ([6]; 30-15 µM): complete loss of viability
